Numbered stars: 1 amine (or outer) side, 2 acyl side, 3 side chain; on linkers, the order of the positions; unused ones are H or OH. Bridge positions count the residues as written; N and C are the ends. Square brackets hold non-standard residues; d marks the D form. Peptide text beside a SMILES is read from it. * marks the point of attachment. X1 = CC[C@H](C)[C@@H](N[*:1])[C@@H](O)CC(=O)O[C@H](C(=O)[C@H](C)C(=O)[*:2])C(C)C; X3 = CC[C@H](C)[C@H](N[*:1])[C@@H](O)CC(=O)O[C@H](C(=O)[C@H](C)C(=O)[*:2])C(C)C; X6 = CC[C@H](C)[C@@H](N[*:1])[C@H](O)CC(=O)O[C@H](C(=O)[C@H](C)C(=O)[*:2])C(C)C; NMeY = CN[C@@H](Cc1ccc(O)cc1)C(=O)O; aThr = C[C@H](O)[C@H](N)C(=O)O; NMeL = CN[C@@H](CC(C)C)C(=O)O; dNMeL = CN[C@H](CC(C)C)C(=O)O; pGlu = O=C1CC[C@@H](C(=O)O)N1; Cbz = O=C(OCc1ccccc1)*; Lac = C[C@H](O)C(=O)O; For = O=C*
What was measured:
[1] = tested on: Balb/c splenocytes (resting lymphocytes); assay: Lymphocyte viability (LcV) assay; assay type: cell-based, murine; conditions: unstimulated Balb/c splenocytes, MTT
Procedure: Forty two (42) didemnin compounds (see Table 1) were evaluated for cytotoxicity to one of the lymphocyte populations in the MLR (i.e., Balb/c splenocytes). The purpose of the lymphocyte viability assay (LcV) is to measure metabolic activity in lymphocytes after they have been exposed to the compounds for the duration of an under conditions equivalent to the MLR. The inverse of the data yields cytotoxicity information about the compounds on murine lymphocytes. The rationale of using resting cells, in this case unstimulated lymphocytes, to measure cytotoxicity has a strategic importance. In the MLR the heterogenous cell populations are predominantly resting cells when the assay begins.
Test compounds were prepared in two sets as described above. Splenocytes were prepared as described previously from one murine strain (Balb/c), and a volume of 200 μL of the cell suspension was added to one set of test compounds and control wells.
Assay plates were incubated as in the MLR and then pulsed overnight 75 μL per well MTT-thiazolyl blue solution (150 μg). The plates were decanted and the resulting insoluble formazan crystals were dissolved in 200 μL of isopropyl alcohol. Absorbance at 570 nm was measured.
The LcV data were calculated as a percentage of basal metabolic activity, or percent viability, relative to BALB/c control, and an LC50 value was interpolated for each test compound.

[2] = tested on: concanavalin A-induced lymphoblasts (Con A splenocytes); assay: Lymphoblast viability (LbV) assay; conditions: Con A-stimulated splenocytes (lymphoblasts), MTT
[3] = tested on: murine splenocytes (Balb/c and C57B1/6); assay: Two-way mixed lymphocyte reaction (MLR) assay; conditions: Balb/c + C57B1/6 splenocytes, 96 h, [3H]thymidine; for IC50: read-out: two-way mixed lymphocyte reaction (MLR) suppression MLR, IC50;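 for all read-outs here: proliferation read as tritiated thymidine incorporation into newly made DNA after an overnight pulse, expressed as percent of control activity, IC50 interpolated per compound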
[4] = tested on: CB6F1 mice grafted with Balb/c splenocytes; assay: Graft vs host reaction (GVHR) splenomegaly assay; assay type: in vivo; conditions: 200 mg/Kg/day, QD 1-7, ip
Procedure: Three representative compounds didemnin M (38), O-pGlu-DB (37), and didemnin B (1)-showing high (37,38) or moderate (1) in vivo immunosuppressive activity were subsequently evaluated in a multidose assay (0.16,0.016, and 0.0016 mg/kg per injection; qd 1-7) for their in vivo immunosuppressive effects on the GVHR splenomegaly assay.
Three didemnins (didemnin B, didemnin M, and pGlu-didemnin B) were evaluated in a modified Simonsen splenomegaly assay. Briefly, an F1 hybrid host animal is grated with immunocompetent spleen cells from the parent strain. The index used to measure the success of the GVHR is splenomegaly (increased spleen weight due to cellular proliferation of grafted lymphocytes). An index>1.3 (graft index) is considered to be a successful graft rejection of the recipient animal. Immunosuppression is considered as a reduction of the graft index.
On day O, CB6F1 female mice, 4 weeks of age, were grated by intraperitoneal (ip) injection of 50×10^5 splenocytes from BALB/c female mice in high-glucose ([…]) Dulbecco's modified Eagles medium. A syngeneic control group (CB6F1 --CB6F1) was similarly prepared and served as the negative control. Grafted mice were divided into treatment groups containing six mice each. Groups were injected ip with test compound (dissolved in vehicle; 1% abs. EtOH in sterile phosphate-buffered saline) at one of three dose levels (0.16, 0.016, and 0.0016 mg/kg per injection) in a multidose assay, cyclophosphamide (200 mg/kg per injection) or vehicle on days 1-7 (qd 1-7). On day 8 all groups were sacrificed, spleens were excised, and a graft index was calculated for each group by the following formula: [formula]

Compound | cytoxicity to lymphocytes LcV, LC50 [1] | cytoxicity to lymphocytes LcV, LC50 ([1]; highest concentration 10 μg/mL) | cytotoxicity to lymphocytes LbV, LC50 [2] | two-way mixed lymphocyte reaction (MLR) suppression MLR, IC50 [3] | IC50 [3] | alive day 8 [4] | body weight change day 5 [4] | body weight day 5 (g ± SD) [4] | index (spleen wt. treated/spleen wt. syngenetic injection) [4] | mean group spleen wt. normalized to day 8 body weight [4]
CC[C@H](C)[C@H]1NC(=O)[C@@H](NC(=O)[C@@H](CC(C)C)N(C)C(C)=O)[C@@H](C)OC(=O)[C@H](Cc2ccc(OC)cc2)N(C)C(=O)[C@@H]2CCCN2C(=O)[C@H](CC(C)C)NC(=O)[C@@H](C)C(=O)[C@H](C(C)C)OC(=O)C[C@@H]1O [Compound 18, N^α -Acetyldidemnin A] (Ac-[dNMeL]T[X1]LP[NMeY](Me); ester 2-C) | > 10000 nM | > 10000 ng/mL | 0.39 nM | 0.027 ng/mL | 0.027 nM | – | – | – | – | –
Didemnin X [Compound 41] | 6010 nM | 10000 ng/mL | 3.1 nM | 0.83 ng/mL | 0.5 nM | – | – | – | – | –
[Anhydro1st^2 ][Phth-Ala^9 ]DB [Compound 9] | > 8200 nM | > 10000 ng/mL | 1.9 nM | 0.30 ng/mL | 0.25 nM | – | – | – | – | –
CC[C@H](C)[C@H]1NC(=O)[C@@H](NC(=O)[C@@H](CC(C)C)N(C)C(=O)[C@@H]2CCCN2)[C@@H](C)OC(=O)[C@H](Cc2ccc(OC)cc2)N(C)C(=O)[C@@H]2CCCN2C(=O)[C@H](CC(C)C)NC(=O)[C@@H](C)C(=O)[C@H](C(C)C)OC(=O)C[C@@H]1O [Compound 28, N^α -(L-Pro)Didemnin A] (H-P[dNMeL]T[X1]LP[NMeY](Me); ester 3-C) | > 9600 nM | > 10000 ng/mL | 5.1 nM | 1.00 ng/mL | 0.96 nM | – | – | – | – | –
CC[C@H](C)[C@H]1NC(=O)[C@@H](NC(=O)[C@@H](CC(C)C)N(C)C(=O)[C@@H]2CCCN2C(=O)[C@H](C)O)[C@@H](C)OC(=O)[C@H](Cc2ccc(OC)c(I)c2)N(C)C(=O)[C@@H]2CCCN2C(=O)[C@H](CC(C)C)NC(=O)[C@@H](C)C(=O)[C@H](C(C)C)OC(=O)C[C@@H]1O [Compound 14, Iododidemnin B] | > 8100 nM | > 10000 ng/mL | 0.82 nM | 0.81 ng/mL | 0.66 nM | – | – | – | – | –
CC[C@H](C)[C@H]1NC(=O)[C@@H](NC(=O)[C@@H](CC(C)C)N(C)C(=O)OCc2ccccc2)[C@@H](C)OC(=O)[C@H](Cc2ccc(OC)cc2)N(C)C(=O)[C@@H]2CCCN2C(=O)[C@H](CC(C)C)NC(=O)[C@@H](C)C(=O)[C@H](C(C)C)OC(=O)C[C@H]1O [Compound 4, Z-[(3R,4R,5S)Ist^2]Didemnin A] (Cbz-[dNMeL]T[X6]LP[NMeY](Me); ester 2-C) | 9000 nM | 9700 ng/mL | 220 nM | 19.0 ng/mL | 18 nM | – | – | – | – | –
CC[C@H](C)[C@H]1NC(=O)[C@@H](NC(=O)[C@@H](CC(C)C)N(C)C(=O)[C@@H](N)CC(C)C)[C@@H](C)OC(=O)[C@H](Cc2ccc(OC)cc2)N(C)C(=O)[C@@H]2CCCN2C(=O)[C@H](CC(C)C)NC(=O)[C@@H](C)C(=O)[C@H](C(C)C)OC(=O)C[C@@H]1O [Compound 27, N-(L-Leu)Didemnin A] (H-L[dNMeL]T[X1]LP[NMeY](Me); ester 3-C) | > 9500 nM | > 10000 ng/mL | 3.8 nM | 0.78 ng/mL | 0.74 nM | – | – | – | – | –
CC[C@H](C)[C@@H]1NC(=O)[C@@H](NC(=O)[C@H](CC(C)C)N(C)C=O)[C@H](C)OC(=O)[C@H](Cc2ccc(OC)cc2)N(C)C(=O)[C@@H]2CCCN2C(=O)[C@H](CC(C)C)NC(=O)[C@@H](C)C(=O)[C@H](C(C)C)OC(=O)C[C@@H]1O [Compound 26, Didemnin G] (For-[NMeL][aThr][X3]LP[NMeY](Me); ester 2-C) | > 10000 nM | > 10000 ng/mL | 1.1 nM | 0.70 ng/mL | 0.72 nM | – | – | – | – | –
CC[C@H](C)[C@H]1NC(=O)[C@@H](NC(=O)[C@@H](CC(C)C)NC)[C@@H](C)OC(=O)[C@H](Cc2ccc(OC)cc2)N(C)C(=O)[C@@H]2CCCN2C(=O)[C@H](CC(C)C)NC(=O)[C@@H](C)C(=O)[C@H](C(C)C)OC(=O)C[C@@H]1O [Compound 2, Didemnin A] (H-[dNMeL]T[X1]LP[NMeY](Me); ester 2-C) | > 11000 nM | > 10000 ng/mL | 15 nM | 0.93 ng/mL | 0.98 nM | – | – | – | – | –
CC[C@H](C)[C@H]1NC(=O)[C@@H](NC(=O)[C@@H](CC(C)C)N(C)C(=O)OCc2ccccc2)[C@@H](C)OC(=O)[C@H](Cc2ccc(OC)cc2)N(C)C(=O)[C@@H]2CCCN2C(=O)[C@H](CC(C)C)NC(=O)[C@@H](C)C(=O)[C@H](C(C)C)OC(=O)C[C@@H]1O [Compound 3, Z-Didemnin A] (Cbz-[dNMeL]T[X1]LP[NMeY](Me); ester 2-C) | 7500 nM | 8100 ng/mL | 1.9 nM | 1.10 ng/mL | 1.02 nM | – | – | – | – | –
CC[C@H](C)[C@H]1NC(=O)[C@@H](NC(=O)[C@@H](CC(C)C)N(C)C(=O)[C@@H]2CCCN2C(=O)[C@H](C)OC(=O)[C@H](CCC(N)=O)NC(=O)[C@H](CCC(N)=O)NC(=O)[C@H](CCC(N)=O)NC(=O)[C@@H]2CCC(=O)N2)[C@@H](C)OC(=O)[C@H](Cc2ccc(OC)cc2)N(C)C(=O)[C@@H]2CCCN2C(=O)[C@H](CC(C)C)NC(=O)[C@@H](C)C(=O)[C@H](C(C)C)OC(=O)C[C@@H]1O [Compound 40, Didemnin D] ([pGlu]QQQ[Lac]P[dNMeL]T[X1]LP[NMeY](Me); ester 8-C) | > 6220 nM | > 10000 ng/mL | 0.85 nM | 0.20 ng/mL | 0.12 nM | – | – | – | – | –
O=P1(N(CCCl)CCCl)NCCCO1 (stereo not drawn) [Cyclophosphamide, reference compound] | – | – | – | – | – | 100% | -2.5 g | 13.8 ± 0.4 g | 0.14 | 0.4
CC[C@H](C)[C@H]1NC(=O)[C@@H](NC(=O)[C@@H](CC(C)C)N(C)C(=O)[C@@H]2CCCN2C(=O)[C@H](C)O)[C@@H](C)OC(=O)[C@H](CC2CCC(OC)CC2)N(C)C(=O)[C@@H]2CCCN2C(=O)[C@H](CC(C)C)NC(=O)[C@@H](C)C(=O)[C@H](C(C)C)OC(=O)C[C@@H]1O (stereo partly drawn) [Compound 15, [H6 Me2 Tyr6]Didemnin B] | – | – | 1.6 nM | 0.81 ng/mL | 0.72 nM | – | – | – | – | –
